Columns and labels:
[1] = test system: sebaceous-gland-structure A; experiment: Observation of inside of sebaceous-gland-structure, lipid droplets of sebum in outermost layer / degree of progress of sebum production (Example 2); type: cell-based; settings: test sample D, linoleic acid 1×10^−4 M plus test substance 1 μM, 24 hours (Experiment number 9); FIGS. 9 and 10
Procedure: Linoleic acid and linoleic acid receptor antagonist (manufactured by Abeam plc, trade name: GSK-3787) as test substances were added to the mixed medium obtained in Preparation Example 1 so that the concentration of linoleic acid was 1×10^−4 M and so that the concentration of the test substance was 1 μM, to obtain a test sample D.
One milliliter of the test sample A was added to each well of a 24-well plate. Next, the sebaceous-gland-structure A obtained in Preparation Example 6 was cultured in a suspended state in the test sample A in each well of the 24-well plate in the presence of 5% by volume carbon dioxide at 37° C. for 24 hours, to contact the sebaceous-gland-structure A with the test sample A (Experiment number 7). […]
Furthermore, the state of each cell of 40 cells in the outermost layer shown in each figure was evaluated by using the results shown in FIGS. 7 to 9 on the basis of the evaluation criterion described below. […]
Next, the degree of progress of sebum production in the sebaceous gland cell contained in the sebaceous-gland-structure A was evaluated by calculating the mean value of the points in the 40 cells in the outermost layer in FIGS. 7 to 9. […]

[2] = test system: sebaceous-gland-structure A; experiment: Degree of sebum production from three-dimensional image analysis of outermost layer (Example 4); type: cell-based; settings: 24 hours
Procedure: Linoleic acid and phytic acid as test substances were added to the mixed medium obtained in Preparation Example 1 (test sample A) so that the concentration of linoleic acid was 1×10^−4M and so that the concentration of the test sample was 100 μM, to obtain a test sample E. One milliliter of the test sample A was added to each well of a 24-well plate. Text, the sebaceous-gland-structure A obtained in Preparation Example 6 was cultured in a suspended state in the test sample A contained in each well of the 24-well plate in the presence of 5% by volume carbon dioxide at 37° C. for 24 hours, to contact the sebaceous-gland-structure A with the test sample A (Experiment number 10). In addition, the sebaceous-gland-structure A was contacted with the test sample B (Experiment number 11) or the test sample E (Experiment number 12) in the same manner as in Experiment, number 10 except that in Experiment number 10, the test sample B obtained in Example 1(1) (Experiment number 11) or the test sample E obtained in Example 4(1) (Experiment number 12) was used in place of the test sample A. Each of observation samples of Experiment numbers 10 to 12 was obtained in the same manner as in Preparation Example 7 except that in Preparation Example 7, the cultured sebaceous-gland-structure A obtained in Example 4(2) (Experiment numbers 10 to 12) was used in place of the cultured sebaceous-gland-structure A obtained in Preparation Example 6. The appearance of the sebaceous-gland-structure A contained in the observation sample of each of Experiment numbers 10 to 12 obtained in Example 4(3) was observed under a confocal microscope by using image analysis software (manufactured b Bitplane AG, trade name: Imaris), thereby giving three-dimensional image of the sebaceous-gland-structure A. Next, information of the outermost layer of the sebaceous-gland-structure A was extracted from the data of the resulting three-dimensional image by using image analysis software (manufactured by Bitplane AG, trade name: Imaris). Thereafter, the whole volume of the cells present in the outermost layer was calculated from the extracted information, and thereafter the sebum droplets contained in the outermost layer were counted. Using the whole volume of the cells present in the outermost layer and the number of lipid droplets of the sebum the degree of sebum production was calculated according to Formula (I): [Degree of Sebum production]=[Number of lipid droplets of sebum]/[Whole volume of cells present in outermost layer] (I)

Row | Structure (SMILES) | lipid droplets of sebum in the outermost layer of the sebaceous-gland-structure A [1] | sebum production-regulating action ([2]; phytic acid 100 μM in presence of linoleic acid 1×10^−4 M, conclusion from FIG. 11) | degree of sebum production (number of lipid droplets of sebum / whole volume of cells present in outermost layer) ([2]; test sample E, linoleic acid 1×10^−4 M plus phytic acid 100 μM, compared with test sample containing linoleic acid, FIG. 11)
1 | O=C(NCCS(=O)(=O)c1ccc(C(F)(F)F)cn1)c1ccc(Cl)cc1 [linoleic acid receptor antagonist, GSK-3787] | no lipid droplet of sebum was found |  | 
2 | O=P(O)(O)O[C@H]1[C@H](OP(=O)(O)O)[C@@H](OP(=O)(O)O)[C@H](OP(=O)(O)O)[C@@H](OP(=O)(O)O)[C@H]1OP(=O)(O)O [phytic acid] |  | sebum production-inhibiting action | lower

Reference: patent US20200003756A1, “METHOD FOR OBSERVING SEBACEOUS GLAND” (MANDOM CORPORATION, priority 2017, published 2020)
